Paper PMC6264499, “In silico identification and experimental validation of hits active against KPC-2 β-lactamase” (PLoS ONE, 2018)

Legend:
recombinant KPC-2 [1] = target: T1, recombinant KPC-2 (Klebsiella pneumoniae, UniProt Q9F663); experiment: KPC-2 inhibition assay, CENTA as reporter substrate; format: biochemical; details: for IC50: CENTA 100 μM (km 70 μM), 25°, 405 nm, no pre-incubation, read-out: IC50
T1 construct: made in house; host or cells: E. coli BL21 (DE3)
Procedure: (§1) The blaKPC-2 gene was kindly provided by Prof. Sergei Vakulenko (University of Notre Dame du Lac, Indiana, USA) and cloned as already reported and transformed into competent E.coli BL21 (DE3) cells for protein expression. 50 mL of Tryptic Soy Broth (TSB) (50 mg/L kanamycin) were inoculated with fresh colonies and grown at 37°C. 4 mL of the overnight culture was used to inoculate 1.3 L of TSB (50 mg/L kanamycin) grown at 37°C with shaking to an optical density of 0.5 measured at 600 nm. Then expression of recombinant bla gene was induced by adding 1.0 mM IPTG (isopropyl-D-thiogalactopyranoside) and the cells were again allowed to grow at 20°C overnight. Bacteria were harvested by centrifugation at 4000 rpm for 20 minutes. The pelleted cells were resuspended in Tris-HCl 50 mM pH 7.4–7.5. Periplasmatic proteins were extracted as reported in the pET System Manual (TB055 10th Edition Rev. B 0403) and subsequently dialyzed in sodium acetate buffer (50 mM, pH 5.0). The protein was conveniently purified in a single step using a Macro-Prep High S resin and eluted using sodium acetate 50 mM pH 5.0 and a sodium chloride (NaCl) linear gradient from 100 to 500 mM. The purified protein was dialyzed overnight in sodium phosphate buffer 50 mM, pH 7.0 [31, 32].
(§2) The hydrolytic activity of KPC-2 was measured using the β-lactam substrates CENTA (100 uM, KM 70 uM) or nitrocefin (114 uM, KM 36 μM) in reaction buffer consisting of 50 mM of PB at pH 7.0 at 25°C with 0.01% v/v Triton X-100 to avoid compound aggregation and promiscuous inhibition.[33] Reactions were monitored using a Beckmann DU640 spectrophotometer at […] for CENTA and 480 nm wavelength for nitrocefin [34]. The test compounds were synthesized as described below or purchased from Enamine, TimTec, Vitas-M, ChemBridge, Otava, Life Chemicals or Apollo Scientific and assayed without further purification. Compounds were dissolved in dimethyl sulfoxide (DMSO) to a concentration of 25 mM and stored at -20°C. The highest concentration at which the compounds were tested was up to 1 mM (depending on their solubility). All experiments were performed in duplicate and the error never exceeded 5%. The reaction was typically initiated by adding KPC-2 to the reaction buffer last. To control for incubation effects, protein was added to the reaction buffer first, and the reaction was initiated by the addition of reporter substrate after 10 minutes of enzyme-compound incubation.
Fig 4 Inhibitory activity of compounds selected from virtual screening. ^[a]Assays were performed in duplicate (errors were less than 5%) with CENTA as reporter substrate (100 μM, km 70 μM). Kinetic were monitored at 25° by following the absorbance variation at λ = 405 nm. ^[b] If no IC50 has been measured, percent inhibition at the highest tested concentration is given in parentheses. For example, > 0.50 (26%) implies that the highest concentration tested was 0.50 mM; at this concentration, the enzyme was inhibited by 26%. Therefore, IC50> 0.50 mM. When % Inhibition was below 10% No Inibition (NI) is reported. ^[c]Assays were run after 10’ incubation of the inhibitor with KPC-2. Reaction was started by the addition of CENTA. […] 0 (11) | 32a: IC50 mM ^[a,b]: 1.24
Competitive inhibition mechanism and the Ki for compound 9a was determined by Lineweaver–Burk (LB) and Dixon plots.

Kpn 53A8 = experiment: MIC of meropenem, alone or 1:1 with compounds, KPC-2 clinical strain; format: cell-based, K. pneumoniae; details: strain Kpn 53A8
Procedure: The antimicrobial activity of the best hits 9a and 11a and their derivatives was studied in bacterial cell cultures to investigate their ability to cross the outer membrane reaching the periplasmic space, where KPC-2 is secreted and confined in Gram negative bacteria. Compounds were tested for synergy with the β-lactam antibiotic meropenem against four K. pneumoniae clinical strains, isolated from different patients at the Hospital Universitario Son Espases, Palma de Mallorca, Spain. […] The three additional strains harbored the blaKPC-2 gene and were resistant to meropenem (Table 2). […] However, against strain Kpn 53A8 the MIC value was lowered by a factor of two when meropenem was combined with compounds 32a, 1b, 2b, 5b and 6b while in combination with compound 11a the MIC value was reduced by 4 fold.

recombinant KPC-2 [2] = target: T1, recombinant KPC-2; experiment: KPC-2 inhibition assay, nitrocefin as reporter substrate; format: biochemical; details: for IC50: nitrocefin 114.28 μM (Km 36 μM), 25°, 485 nm
Procedure: as §1, §2
Kinetic were monitored at 25° by following the absorbance variation at λ = 485 nm. ^[b] If no IC50 has been measured, percent inhibition at the highest tested concentration is given in parentheses. […] When % Inhibition was below 10% No Inhibition (NI) is reported. TEXT PRINTED IN THE PICTURE: 11a: IC50 mM [a,b]: 0.036 | 1b: IC50 mM [a,b]: > 0.2 (25) | 2b: IC50 mM [a,b]: >0.6 (23) | 3b: IC50 mM [a,b]: Not tested not soluble | 4b: IC50 mM [a,b]: > 0.2 (16) | 5b: IC50 mM [a,b]: > 0.2 (13) | 6b: IC50 mM [a,b]: NI at 0.2 | 7b: IC50 mM [a,b]: >1.0 (30) | 8b: IC50 mM [a,b]: > 1.0 (37) | 9b: IC50 mM [a,b]: NI at 0.5 | 10b: IC50 mM [a,b]: NI at 0.5 | 11b: IC50 mM [a,b]: > 1.0 (37) | 12b: IC50 mM [a,b]: NI at 0.5 | 13b: IC50 mM [a,b]: NI at 0.5 | 14b: IC50 mM [a,b]: >500 (20) DOUBTS OF THE COPYIST ABOUT THIS PICTURE: column head: raised note printed very small, read as [a,b]

[3] = read-out: percent inhibition at the highest tested concentration

T1 sequence (Q9F663 25-293, looked up): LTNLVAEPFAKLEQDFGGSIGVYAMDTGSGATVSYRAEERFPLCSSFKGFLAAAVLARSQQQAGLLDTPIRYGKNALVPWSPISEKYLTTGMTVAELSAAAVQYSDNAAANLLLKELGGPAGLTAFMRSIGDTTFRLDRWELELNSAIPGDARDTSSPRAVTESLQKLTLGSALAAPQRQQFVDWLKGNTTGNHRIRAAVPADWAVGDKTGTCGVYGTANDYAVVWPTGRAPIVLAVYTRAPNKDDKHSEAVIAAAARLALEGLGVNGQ

| SMILES | IC50 (recombinant KPC-2 [1]) [µM] | inhibition at 1000 µM (recombinant KPC-2 [1]; [3]) [%] | further results |
| --- | --- | --- | --- |
| O=C(NCc1nnnn1-c1ccccc1)c1cccnc1O [25a] | > 400 |  | inhibition at 400 µM (recombinant KPC-2 [1]; [3]): 26% |
| O=[N+]([O-])c1cccc(S(=O)(=O)Nc2cccc(-c3nnn[nH]3)c2)c1 [2b, N-(3-(1H-tetrazol-5-yl)phenyl)-3-nitrobenzenesulfonamide] |  |  | fold reduction of meropenem MIC in combination with compound (Kpn 53A8): two; IC50 (recombinant KPC-2 [2]): > 600 µM; inhibition at 600 µM (recombinant KPC-2 [2]; [3]): 23% |
| Cc1nn(CC(=O)O)c(C)c1NS(=O)(=O)CC(F)(F)F [29a] | > 1000 | 15 |  |
| CS(=O)(=O)Nc1ccc(C(N)=O)cc1 [6a] | > 1000 | 18 |  |
| Cc1c(Br)cc(S(=O)(=O)Nc2cccc(-c3nnn[nH]3)c2)cc1[N+](=O)[O-] [9b] |  |  | inhibition at 500 µM (recombinant KPC-2 [2]; [3]): < 10% |
| CS(=O)(=O)Nc1ccc2oc(=O)sc2c1 [31a] | > 1000 | 11 |  |
| O=c1ccc(O)nn1-c1nnn[nH]1 [17a] | > 1000 | 23 |  |
| CC(=O)Nc1ccc(S(=O)(=O)Nc2cccc(-c3nnn[nH]3)c2)cc1 [4b, N-(4-(N-(3-(1H-tetrazol-5-yl)phenyl)sulfamoyl)phenyl)acetamide] |  |  | IC50 (recombinant KPC-2 [2]): > 200 µM; inhibition at 200 µM (recombinant KPC-2 [2]; [3]): 16% |
| Cc1c(-c2cc(C(=O)O)no2)cnn1C [3a] | > 250 |  | inhibition at 250 µM (recombinant KPC-2 [1]; [3]): 13% |
| Cc1nc2cc(S(=O)(=O)Nc3cccc(-c4nnn[nH]4)c3)ccc2n1-c1ccccc1 [11b] |  |  | IC50 (recombinant KPC-2 [2]): > 1000 µM; inhibition at 1000 µM (recombinant KPC-2 [2]; [3]): 37% |
| NC(=O)c1ccc(-c2nnn[nH]2)cc1 [13a] |  |  | inhibition at 250 µM (recombinant KPC-2 [1]; [3]): < 10% |
| Cc1nn(CC(=O)O)c2[nH]c(=O)cc(C(F)F)c12 [16a] | > 1000 | 17 |  |
| O=S(=O)(Nc1cccc(-c2nnn[nH]2)c1)c1ccc(S(=O)(=O)N2CCCC2)cc1 [10b] |  |  | inhibition at 500 µM (recombinant KPC-2 [2]; [3]): < 10% |
| COc1ccc(NS(C)(=O)=O)cc1 [5a] | > 500 |  | inhibition at 500 µM (recombinant KPC-2 [1]; [3]): 13% |
| Cn1nccc1-c1cc(C(=O)O)n[nH]1 [27a] |  |  | inhibition at 500 µM (recombinant KPC-2 [1]; [3]): < 10% |
| COCc1nc2cc(NS(C)(=O)=O)ccc2o1 [21a] | > 1000 | 12 |  |
| Cc1cc(C(=O)O)cc(S(=O)(=O)Nc2cccc(-c3nnn[nH]3)c2)c1C [8b] |  |  | IC50 (recombinant KPC-2 [2]): > 1000 µM; inhibition at 1000 µM (recombinant KPC-2 [2]; [3]): 37% |
| O=C(NC1CC1)c1ccc(-c2nnn[nH]2)cc1 [18a] | > 1000 | 18 |  |
| COc1ccc2nc(C(=O)O)[nH]c2c1 [19a] | 880 |  | fold less active than 9a (recombinant KPC-2 [1]; IC50 vs KPC-2 relative to compound 9a): 6 fold |
| CC(=O)Nc1cccc(-c2nnn[nH]2)c1 [8a] | > 500 |  | inhibition at 500 µM (recombinant KPC-2 [1]; [3]): 37% |
| COc1ccc2[nH]nc(C(=O)O)c2c1 [1a] | > 330 |  | inhibition at 330 µM (recombinant KPC-2 [1]; [3]): 30% |
| NS(=O)(=O)c1ccc(Cl)c(S(=O)(=O)Nc2cccc(-c3nnn[nH]3)c2)c1 [13b] |  |  | inhibition at 500 µM (recombinant KPC-2 [2]; [3]): < 10% |
